The NIST ThermoML archive (doi:10.1016/j.tca.2013.12.016)

Experiment: mn = molality of the nth substance listed, in mol/kg
Conditions: 101 kPa, Liquid; for speed of sound: Linear variable-path acoustic interferometer; for mass density: Vibrating tube method

CCOC(C)=O [ethyl acetate] + CCO
Conditions | mass density, 298.15 K [kg/m3] | mass density, 303.15 K [kg/m3] | mass density, 308.15 K [kg/m3] | mass density, 313.15 K [kg/m3] | speed of sound, 298.15 K [m/s] | speed of sound, 303.15 K [m/s] | speed of sound, 308.15 K [m/s] | speed of sound, 313.15 K [m/s]
m2 = 0.0124 | 894.9 | 888.4 | 882.9 | 877.2 | 1152 | 1135 | 1116 | 1093
m2 = 0.0357 | 894.7 | 888.2 | 882.7 | 877 | 1151 | 1134 | 1115 | 1091
m2 = 0.0713 | 894.4 | 887.9 | 882.4 | 876.4 | 1150 | 1133 | 1114 | 1090
m2 = 0.1025 | 894.2 | 887.7 | 882.2 | 876.5 | 1149 | 1130 | 1110 | 1089
m2 = 0.2087 | 893.5 | 887 | 881.5 | 875.8 | 1147 | 1128 | 1098 | 1077
m2 = 0.3504 | 892.6 | 886.1 | 880.6 | 874.9 | 1143 | 1123 | 1092 | 1069
m2 = 0.5065 | 891.7 | 885.3 | 879.8 | 874 | 1140 | 1119 | 1091 | 1067
m2 = 0.6771 | 890.7 | 884.4 | 878.9 | 873.2 | 1139 | 1116 | 1086 | 1062
m2 = 0.9772 | 889.1 | 883 | 877.4 | 871.8 | 1136 | 1113 | 1083 | 1059
m2 = 1.701 | 885.5 | 879.4 | 874 | 868.3 | 1131 | 1110 | 1080 | 1056
m2 = 2.712 | 880.6 | 874.7 | 869.3 | 863.7 | 1128 | 1107 | 1074 | 1053
m2 = 3.001 | 879.4 | 873.5 | 868.1 | 862.5 | 1122 | 1101 | 1068 | 1044

CCOC(C)=O [ethyl acetate] + CO
Conditions | mass density, 298.15 K [kg/m3] | mass density, 303.15 K [kg/m3] | mass density, 308.15 K [kg/m3] | mass density, 313.15 K [kg/m3] | speed of sound, 298.15 K [m/s] | speed of sound, 303.15 K [m/s] | speed of sound, 308.15 K [m/s] | speed of sound, 313.15 K [m/s]
m2 = 0.0111 | 894.5 | 888.9 | 883 | 877.1 | 1110 | 1086 | 1059 | 1038
m2 = 0.0223 | 894.6 | 888.8 | 882.9 | 877 | 1113 | 1089 | 1062 | 1041
m2 = 0.0495 | 894.7 | 888.7 | 882.8 | 876.9 | 1116 | 1092 | 1065 | 1044
m2 = 0.1474 | 894.9 | 888.6 | 882.7 | 876.8 | 1119 | 1095 | 1068 | 1047
m2 = 0.2878 | 894.7 | 888.5 | 882.4 | 876.4 | 1122 | 1098 | 1071 | 1050
m2 = 0.3556 | 894.4 | 888.3 | 882.1 | 876.2 | 1125 | 1101 | 1074 | 1053
m2 = 0.4905 | 893.6 | 887.7 | 881.6 | 875.8 | 1128 | 1104 | 1077 | 1056
m2 = 0.7268 | 892.2 | 886.4 | 880.6 | 874.8 | 1131 | 1107 | 1080 | 1059
m2 = 0.974 | 890.5 | 884.9 | 879.1 | 873.8 | 1134 | 1110 | 1089 | 1062
m2 = 1.409 | 888.2 | 882.6 | 877 | 871.6 | 1137 | 1113 | 1092 | 1065
m2 = 2.445 | 886.1 | 879.8 | 873.8 | 868.4 | 1140 | 1116 | 1095 | 1068
m2 = 3.001 | 886 | 879.1 | 873.1 | 867.9 | 1143 | 1122 | 1098 | 1071

COC(C)=O [methyl ethanoate] + CCO
Conditions | mass density, 298.15 K [kg/m3] | mass density, 303.15 K [kg/m3] | mass density, 308.15 K [kg/m3] | mass density, 313.15 K [kg/m3] | speed of sound, 298.15 K [m/s] | speed of sound, 303.15 K [m/s] | speed of sound, 308.15 K [m/s] | speed of sound, 313.15 K [m/s]
m2 = 0.0152 | 927 | 920.5 | 914.2 | 908 | 1153 | 1134 | 1113 | 1089
m2 = 0.0357 | 926.8 | 920.3 | 914 | 907.8 | 1152 | 1131 | 1110 | 1086
m2 = 0.065 | 926.6 | 920.1 | 913.8 | 907.6 | 1150 | 1130 | 1108 | 1084
m2 = 0.102 | 926.3 | 919.8 | 913.5 | 907.3 | 1149 | 1128 | 1107 | 1083
m2 = 0.2098 | 925.5 | 919 | 912.7 | 906.5 | 1146 | 1125 | 1104 | 1080
m2 = 0.3417 | 924.5 | 918 | 911.7 | 905.5 | 1143 | 1122 | 1101 | 1077
m2 = 0.5068 | 923.1 | 916.7 | 910.4 | 904.1 | 1140 | 1119 | 1098 | 1074
m2 = 0.6769 | 921.8 | 915.4 | 909.1 | 902.8 | 1137 | 1116 | 1095 | 1071
m2 = 0.9775 | 919.5 | 913.1 | 906.9 | 900.6 | 1134 | 1113 | 1092 | 1068
m2 = 1.702 | 914.4 | 908 | 901.9 | 895.5 | 1131 | 1110 | 1089 | 1065
m2 = 2.712 | 907.8 | 901.5 | 895.4 | 889 | 1128 | 1107 | 1086 | 1062
m2 = 3 | 905.8 | 899.7 | 893.5 | 887.1 | 1122 | 1104 | 1080 | 1056
